Legend:
R15A [1] = target: T1, R15A (Homo sapiens, UniProt O75807); assay: Limited trypsin proteolysis of R15A (conformational change); settings: 22° C.
T1 construct: PPP1R15A amino acids 325-636 (R15A); His6 (C); made in house; host or cells: E. coli BL21 pLysS
Protocol: (§1) Reactions were allowed to proceed at 22° C. with shaking at 350 rpm. At time points 30 min, 1 h, 2 h or 3 h, 30 μl of sample was removed from the mix and digestion was stopped by addition of 10 μl of 16% SDS Laemmli sample buffer. Samples were run on 4-12% NuPAGE Bis-Tris gels (Life Technologies). Proteins were visualised by staining with InstantBlue Coomassie Protein Stain (Expedeon) protein stain.
(§2) Purified R15A and R15B were diluted to 3 μM in PBS, and incubated for 15′ at RT with 100 μM Raphin1, or DMSO vehicle. Reactions were initiated by addition of 5 nM of trypsin from bovine pancreas (Sigma), made up in PBS, and allowed to proceed for 5′ at 22° C., with shaking at 350 rpm. Digestion was stopped by addition of 4× Laemmli sample buffer and samples were run on 4-12% NuPAGE Bis-Tris gels (Life Technologies). Proteins were visualised by staining with InstantBlue Protein Stain.

R15A^N/R15B^C = target: T2, R15A^N/R15B^C (Homo sapiens, UniProt O75807+Q5SWA1); assay: Dephosphorylation of P-eIF2α by chimeric holophosphatase PP1c-R15A^N/R15B^C; type: biochemical; settings: PP1c 10 nM, compounds 100 μM, 30° C., 16 h
T2 construct: PPP1R15A amino acids 325-636 (R15A), 325-512 (R15A^N), and 513-636 (R15A^C); PPP1R15B amino acids 340-698 (R15B), 340-635 (R15B^N), and 636-698 (R15B^C); R15B^C (PPP1R15B amino acids 636-698); His6 (C); made in house; host or cells: E. coli BL21 pLysS (chimera, eIF2α); E. coli BL21/pGro7 (PP1c)
T2 sequence (O75807+Q5SWA1 fused, stated change not applied): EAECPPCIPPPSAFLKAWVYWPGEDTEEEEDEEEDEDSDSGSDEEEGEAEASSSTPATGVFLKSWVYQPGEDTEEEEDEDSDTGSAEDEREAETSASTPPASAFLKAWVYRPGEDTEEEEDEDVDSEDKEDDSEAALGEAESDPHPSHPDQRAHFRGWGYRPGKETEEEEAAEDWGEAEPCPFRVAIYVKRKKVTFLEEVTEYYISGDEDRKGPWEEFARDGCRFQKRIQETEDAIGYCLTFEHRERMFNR
T2 sequence (P62136 7-330 partner): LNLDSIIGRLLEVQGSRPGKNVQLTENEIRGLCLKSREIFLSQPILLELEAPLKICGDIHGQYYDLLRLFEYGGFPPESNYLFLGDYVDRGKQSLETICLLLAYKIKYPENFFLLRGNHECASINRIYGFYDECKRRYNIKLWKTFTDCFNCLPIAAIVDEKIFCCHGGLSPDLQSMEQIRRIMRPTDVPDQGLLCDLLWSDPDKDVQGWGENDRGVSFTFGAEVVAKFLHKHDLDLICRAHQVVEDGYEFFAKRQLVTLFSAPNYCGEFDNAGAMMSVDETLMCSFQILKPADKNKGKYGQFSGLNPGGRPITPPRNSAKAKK
Text: The cDNA encoding human PPP1R15A, PPP1R15B and PPP1R3A regulatory subunits were cloned into a pMAL-c5×-His vector, encoding for an amino-terminal MBP-tag and a carboxy-terminal His6-tag. […] R15A^N/R15B^C Chimeras were obtained by swapping the amino-terminal regions (R15^N) of R15A and R15B proteins described above, whilst maintaining the same carboxy-terminal regions (R15^C), to produce R15B^N/R15A^C and […] chimeras respectively, using In-Fusion cloning (Takara). All regulatory subunits were expressed in BL21 pLysS cells in Luria broth (LB) at 30° C. overnight. […] R15 proteins were stored at −80° C. and used within one month.
(§3) PP1c was diluted to the appropriate concentration (as indicated in the figure legends) in dephosphorylation buffer immediately prior to use. Dephosphorylation reactions were carried out by pre-incubating diluted PP1c in the presence or absence of regulatory subunits (either […]), and/or compounds (all at 100 μM, except for Salubrinal which was used at 30 μM), for 15′ at RT. All compounds were diluted in DMSO, and DMSO vehicle was used in all control experiments.
The reaction was initiated by the addition of 1 μM P-eIF2α or ^33P Phosphorylase a substrates and then incubated at 30° C. for 16 h with shaking at 350 rpm. Reactions were stopped by addition of 4× Laemmli sample buffer. eIF2α samples were analyzed by immunoblotting or Phos-tag gels. […]

PP1c = target: T3, PP1c (Homo sapiens, UniProt P62136); assay: Dephosphorylation of P-eIF2α by increasing amounts of PP1c alone; type: biochemical; settings: compound 100 μM, 30° C., 16 h
T3 construct: The cDNA encoding amino acids 7-330 of human PP1cα; made in house; host or cells: E. coli BL21/pGro7 (PP1c); E. coli BL21 pLysS (eIF2α)
T3 sequence (P62136 7-330): as the sequence (P62136 7-330 partner) above
Protocol: as §3
(§4) The reaction was initiated by the addition of 1 μM P-eIF2α or ^33P Phosphorylase a substrates and then incubated at 30° C. for 16 h with shaking at 350 rpm. Reactions were stopped by addition of 4× Laemmli sample buffer. eIF2α samples were analyzed by immunoblotting or Phos-tag gels. […] Samples in FIG. 8 and FIG. 16 were run on a 15% SuperSep Phos-tag acrylamide gel (Alpha Laboratories) and visualized by staining with InstantBlue Protein Stain.

R15B = target: T4, R15B (Homo sapiens, UniProt Q5SWA1); assay: Limited trypsin proteolysis of R15B (conformational change); settings: 22° C.
T4 construct: PPP1R15B amino acids 340-698 (R15B); His6 (C); made in house; host or cells: E. coli BL21 pLysS
T4 sequence (Q5SWA1 340-698): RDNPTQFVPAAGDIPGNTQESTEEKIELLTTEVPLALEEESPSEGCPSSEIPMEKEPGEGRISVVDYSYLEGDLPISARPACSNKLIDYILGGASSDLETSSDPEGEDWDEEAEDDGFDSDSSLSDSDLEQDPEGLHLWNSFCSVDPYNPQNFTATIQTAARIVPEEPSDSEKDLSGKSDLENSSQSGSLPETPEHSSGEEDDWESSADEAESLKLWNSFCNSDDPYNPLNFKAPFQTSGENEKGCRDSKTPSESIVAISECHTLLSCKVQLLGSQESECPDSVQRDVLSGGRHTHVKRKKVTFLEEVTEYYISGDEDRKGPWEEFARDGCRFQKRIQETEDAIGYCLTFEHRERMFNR
Protocol: as §1, §2

R15A [2] = target: T1, R15A; assay: Pull-down: binding of P-eIF2α to MBP-tagged R15A on amylose beads; settings: 200 μM compound, 200 nM MBP-R15A, 1 μM P-eIF2α, 10 min 4° C.
Protocol: Purified MBP-tagged regulatory subunits (200 nM), P-eIF2α (1 μM), PP1c ([…]), and 200 μM compounds, or DMSO vehicle, were added as appropriate to 20 μl amylose magnetic bead, pre-equilibrated with interaction buffer (50 mM Tris (pH 7.4), 200 mM NaCl, 0.05% Tween20) in 200 μl volume. All protein dilutions were carried out in interaction buffer. 5% input sample was removed, and added to 4× Laemmli sample buffer for later analysis. The beads were incubated for 10′ at 4° C. The supernatant was removed, and the beads were washed thoroughly with interaction buffer and then resuspended with 50 μl of 2× Laemmli sample buffer. Samples were run on 4-12% NuPAGE Bis-Tris gels (Life Technologies) and analysed by immunoblotting, using anti-MBP HRP (E8038) (NEB), anti-eIF2α (ab26197) (AbCam) or anti-PPP1A (ab137512) (AbCam) antibodies.

R15A-PP1c = target: T5, R15A-PP1c (Homo sapiens, UniProt O75807); assay: In vitro dephosphorylation of P-eIF2α by recombinant R15A-PP1c holophosphatase (10 nM PP1c); type: biochemical; settings: PP1c 10 nM, 1 μM P-eIF2α, compounds 100 μM, 30° C., 16 h
T5 construct: PPP1R15A amino acids 325-636 (R15A); His6 (C); made in house; host or cells: E. coli BL21 pLysS (R15A, eIF2α); E. coli BL21/pGro7 (PP1c)
T5 sequence (O75807 325-636, stated change not applied): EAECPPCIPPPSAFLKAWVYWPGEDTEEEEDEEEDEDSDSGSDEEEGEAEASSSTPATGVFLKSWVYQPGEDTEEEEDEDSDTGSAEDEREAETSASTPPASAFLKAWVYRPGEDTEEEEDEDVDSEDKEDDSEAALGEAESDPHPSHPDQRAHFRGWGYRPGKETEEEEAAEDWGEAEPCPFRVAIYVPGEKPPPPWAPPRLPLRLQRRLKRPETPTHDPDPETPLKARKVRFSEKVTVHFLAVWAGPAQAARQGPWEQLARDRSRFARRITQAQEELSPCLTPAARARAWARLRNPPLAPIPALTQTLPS
T5 sequence (P62136 7-330 partner): as the sequence (P62136 7-330 partner) above
Protocol: as §3, §4

T1 sequence (O75807 325-636, stated change not applied): as the sequence (O75807 325-636, stated change not applied) above

Row | inhibition of R15A^N/R15B^C chimeric holophosphatase (R15A^N/R15B^C) | inhibition of PP1c alone (PP1c) | sensitivity of R15B to trypsin proteolysis (R15B; 100 μM compound, 0.5 μM R15B, 2.5 nM trypsin, 30 min to 3 h) | inhibition of R15A-PP1c eIF2α holophosphatase (R15A-PP1c) | trypsin sensitivity of R15B (R15B; 100 μM Raphin1, 3 μM R15B, 5 nM trypsin, 5 min) | SMILES | sensitivity of R15A to trypsin proteolysis (R15A [1]; 100 μM compound, 0.5 μM R15A, 2.5 nM trypsin, 30 min to 3 h) | effect on binding of eIF2α to R15A (R15A [2]) | trypsin sensitivity of R15A (R15A [1]; 100 μM Raphin1, 3 μM R15A, 5 nM trypsin, 5 min)
1 | inhibited | did not inhibit PP1c | No such protective effects | selectively inhibited R15A-PP1c | – | N=C(N)N/N=C/c1c(Cl)cccc1Cl [Guanabenz] | decreased the sensitivity of R15A to trypsin proteolysis | decreased the binding of R15A to eIF2α | –
2 | not R15A^N/R15B^C | did not inhibit PP1c | – | not R15A-PP1c | protected R15B | NC(N)=N/N=C/c1cccc(Cl)c1Cl [Raphin1] | – | this inhibition was not observed with R15A | had no effect on the trypsin sensitivity of R15A

From patent US20200199647A1, “ASSAY FOR SCREENING MODULATORS OF HOLOPHOSPHATASE ACTIVITY” (UNITED KINGDOM RESEARCH AND INNOVATION, priority 2017, published 2020)
